{
  "source": "PubChem BioAssay AID1963971",
  "about": "(Molecular Pharmacology Branch, DTP, NCI, 2024);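 also: spheroids exposed to compounds for seven days before read-out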",
  "test_system": "953936-095-R-J2-PDC spheroids with HUVEC/MSC, viability",
  "test": "Anticancer human tumor 953936-095-R-J2-PDC patient-derived cervical squamous cell carcinoma cell line growth inhibition [PI3K]",
  "settings": "for IC50: curve of first compound; for viability, T/C: stronger effect = lower value",
  "how_it_was_run": "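We assembled tumor spheroids that included a stromal compartment of HUVEC and MSCs, then exposed them to targeted agents alone and together with PI3K pathway inhibitors. Concentration series descended by half-log from clinically achievable Cmax levels. Viability served as the endpoint.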",
  "key": {"[1]": {"settings": "second compound 0.00316 µM, first compound 0.000316 µM"}, "[2]": {"settings": "second compound 0.00316 µM, first compound 0.001 µM"}, "[3]": {"settings": "second compound 0.00316 µM, first compound 0.00316 µM"}, "[4]": {"settings": "second compound 0.00316 µM, first compound 0.01 µM"}, "[5]": {"settings": "second compound 0.00316 µM, first compound 0.0316 µM"}, "[6]": {"settings": "second compound 0.00316 µM, first compound 0.1 µM"}, "[7]": {"settings": "second compound 0.01 µM, first compound 0.000316 µM"}, "[8]": {"settings": "second compound 0.01 µM, first compound 0.001 µM"}, "[9]": {"settings": "second compound 0.01 µM, first compound 0.00316 µM"}, "[10]": {"settings": "second compound 0.01 µM, first compound 0.01 µM"}, "[11]": {"settings": "second compound 0.01 µM, first compound 0.0316 µM"}, "[12]": {"settings": "second compound 0.01 µM, first compound 0.1 µM"}, "[13]": {"settings": "second compound 0.0316 µM, first compound 0.000316 µM"}, "[14]": {"settings": "second compound 0.0316 µM, first compound 0.001 µM"}, "[15]": {"settings": "second compound 0.0316 µM, first compound 0.00316 µM"}, "[16]": {"settings": "second compound 0.0316 µM, first compound 0.01 µM"}, "[17]": {"settings": "second compound 0.0316 µM, first compound 0.0316 µM"}, "[18]": {"settings": "second compound 0.0316 µM, first compound 0.1 µM"}, "[19]": {"settings": "second compound 0.1 µM, first compound 0.000316 µM"}, "[20]": {"settings": "second compound 0.1 µM, first compound 0.001 µM"}, "[21]": {"settings": "second compound 0.1 µM, first compound 0.00316 µM"}, "[22]": {"settings": "second compound 0.1 µM, first compound 0.01 µM"}, "[23]": {"settings": "second compound 0.1 µM, first compound 0.0316 µM"}, "[24]": {"settings": "second compound 0.1 µM, first compound 0.1 µM"}, "[25]": {"settings": "second compound 0.316 µM, first compound 0.000316 µM"}, "[26]": {"settings": "second compound 0.316 µM, first compound 0.001 µM"}, "[27]": {"settings": "second compound 0.316 µM, first compound 0.00316 µM"}, "[28]": {"settings": "second compound 0.316 µM, first compound 0.01 µM"}, "[29]": {"settings": "second compound 0.316 µM, first compound 0.0316 µM"}, "[30]": {"settings": "second compound 0.316 µM, first compound 0.1 µM"}, "[31]": {"settings": "second compound 1 µM, first compound 0.000316 µM"}, "[32]": {"settings": "second compound 1 µM, first compound 0.001 µM"}, "[33]": {"settings": "second compound 1 µM, first compound 0.00316 µM"}, "[34]": {"settings": "second compound 1 µM, first compound 0.01 µM"}, "[35]": {"settings": "second compound 1 µM, first compound 0.0316 µM"}, "[36]": {"settings": "second compound 1 µM, first compound 0.1 µM"}},
  "data": [
    {"smiles": "CC(C)n1nc(-c2ccc3oc(N)nc3c2)c2c(N)ncnc21", "note": "+ CC(Nc1ccc2c(c1)OCCn1cc(N3C(=O)OCC3C(F)F)nc1-2)C(N)=O", "values": [
      {"measurement": "IC50", "setting": "second compound 0.00316 µM", "value": 27.5, "unit": "nM"},
      {"measurement": "IC50", "setting": "second compound 0.01 µM", "value": 23.1, "unit": "nM"},
      {"measurement": "IC50", "setting": "second compound 0.0316 µM", "value": 14.2, "unit": "nM"},
      {"measurement": "IC50", "setting": "second compound 0.1 µM", "value": 1.4, "unit": "nM"},
      {"measurement": "IC50", "setting": "second compound 0.316 µM", "value": "< 0.316", "unit": "nM"},
      {"measurement": "IC50", "setting": "second compound 1 µM", "value": "< 0.316", "unit": "nM"},
      {"measurement": "viability, T/C", "setting": "[1]", "value": 92.9, "unit": "%"},
      {"measurement": "viability, T/C", "setting": "[2]", "value": 93.3, "unit": "%"},
      {"measurement": "viability, T/C", "setting": "[3]", "value": 81.3, "unit": "%"},
      {"measurement": "viability, T/C", "setting": "[4]", "value": 73.7, "unit": "%"},
      {"measurement": "viability, T/C", "setting": "[5]", "value": 46.2, "unit": "%"},
      {"measurement": "viability, T/C", "setting": "[6]", "value": 15.5, "unit": "%"},
      {"measurement": "viability, T/C", "setting": "[7]", "value": 87.1, "unit": "%"},
      {"measurement": "viability, T/C", "setting": "[8]", "value": 88.8, "unit": "%"},
      {"measurement": "viability, T/C", "setting": "[9]", "value": 79.1, "unit": "%"},
      {"measurement": "viability, T/C", "setting": "[10]", "value": 67.6, "unit": "%"},
      {"measurement": "viability, T/C", "setting": "[11]", "value": 43.6, "unit": "%"},
      {"measurement": "viability, T/C", "setting": "[12]", "value": 15.2, "unit": "%"},
      {"measurement": "viability, T/C", "setting": "[13]", "value": 73, "unit": "%"},
      {"measurement": "viability, T/C", "setting": "[14]", "value": 71.9, "unit": "%"},
      {"measurement": "viability, T/C", "setting": "[15]", "value": 73.4, "unit": "%"},
      {"measurement": "viability, T/C", "setting": "[16]", "value": 53.5, "unit": "%"},
      {"measurement": "viability, T/C", "setting": "[17]", "value": 35.7, "unit": "%"},
      {"measurement": "viability, T/C", "setting": "[18]", "value": 12.1, "unit": "%"},
      {"measurement": "viability, T/C", "setting": "[19]", "value": 57.7, "unit": "%"},
      {"measurement": "viability, T/C", "setting": "[20]", "value": 52.5, "unit": "%"},
      {"measurement": "viability, T/C", "setting": "[21]", "value": 44.3, "unit": "%"},
      {"measurement": "viability, T/C", "setting": "[22]", "value": 34, "unit": "%"},
      {"measurement": "viability, T/C", "setting": "[23]", "value": 21.6, "unit": "%"},
      {"measurement": "viability, T/C", "setting": "[24]", "value": 7.99, "unit": "%"},
      {"measurement": "viability, T/C", "setting": "[25]", "value": 34.1, "unit": "%"},
      {"measurement": "viability, T/C", "setting": "[26]", "value": 31.2, "unit": "%"},
      {"measurement": "viability, T/C", "setting": "[27]", "value": 28.5, "unit": "%"},
      {"measurement": "viability, T/C", "setting": "[28]", "value": 22.7, "unit": "%"},
      {"measurement": "viability, T/C", "setting": "[29]", "value": 13.1, "unit": "%"},
      {"measurement": "viability, T/C", "setting": "[30]", "value": 6.47, "unit": "%"},
      {"measurement": "viability, T/C", "setting": "[31]", "value": 20.8, "unit": "%"},
      {"measurement": "viability, T/C", "setting": "[32]", "value": 21.7, "unit": "%"},
      {"measurement": "viability, T/C", "setting": "[33]", "value": 18.3, "unit": "%"},
      {"measurement": "viability, T/C", "setting": "[34]", "value": 16.3, "unit": "%"},
      {"measurement": "viability, T/C", "setting": "[35]", "value": 9.69, "unit": "%"},
      {"measurement": "viability, T/C", "setting": "[36]", "value": 5.32, "unit": "%"}
    ]},
    {"smiles": "Cn1ncnc1[C@H]1c2n[nH]c(=O)c3cc(F)cc(c23)N[C@@H]1c1ccc(F)cc1", "note": "+ COc1c(OCCCN2CCOCC2)ccc2c3n(c(=NC(=O)c4cnc(N)nc4)nc12)CCN3", "values": [
      {"measurement": "IC50", "setting": "second compound 0.00316 µM", "value": "> 100", "unit": "nM"},
      {"measurement": "IC50", "setting": "second compound 0.01 µM", "value": "> 100", "unit": "nM"},
      {"measurement": "IC50", "setting": "second compound 0.0316 µM", "value": "< 0.316", "unit": "nM"},
      {"measurement": "IC50", "setting": "second compound 0.1 µM", "value": "< 0.316", "unit": "nM"},
      {"measurement": "IC50", "setting": "second compound 0.316 µM", "value": "< 0.316", "unit": "nM"},
      {"measurement": "IC50", "setting": "second compound 1 µM", "value": "< 0.316", "unit": "nM"},
      {"measurement": "viability, T/C", "setting": "[1]", "value": 83, "unit": "%"},
      {"measurement": "viability, T/C", "setting": "[2]", "value": 102, "unit": "%"},
      {"measurement": "viability, T/C", "setting": "[3]", "value": 93.9, "unit": "%"},
      {"measurement": "viability, T/C", "setting": "[4]", "value": 85.2, "unit": "%"},
      {"measurement": "viability, T/C", "setting": "[5]", "value": 81.6, "unit": "%"},
      {"measurement": "viability, T/C", "setting": "[6]", "value": 78.5, "unit": "%"},
      {"measurement": "viability, T/C", "setting": "[7]", "value": 71, "unit": "%"},
      {"measurement": "viability, T/C", "setting": "[8]", "value": 85.1, "unit": "%"},
      {"measurement": "viability, T/C", "setting": "[9]", "value": 81.1, "unit": "%"},
      {"measurement": "viability, T/C", "setting": "[10]", "value": 72.1, "unit": "%"},
      {"measurement": "viability, T/C", "setting": "[11]", "value": 67.3, "unit": "%"},
      {"measurement": "viability, T/C", "setting": "[12]", "value": 68.2, "unit": "%"},
      {"measurement": "viability, T/C", "setting": "[13]", "value": 44.6, "unit": "%"},
      {"measurement": "viability, T/C", "setting": "[14]", "value": 39.1, "unit": "%"},
      {"measurement": "viability, T/C", "setting": "[15]", "value": 41, "unit": "%"},
      {"measurement": "viability, T/C", "setting": "[16]", "value": 43, "unit": "%"},
      {"measurement": "viability, T/C", "setting": "[17]", "value": 39.3, "unit": "%"},
      {"measurement": "viability, T/C", "setting": "[18]", "value": 35.8, "unit": "%"},
      {"measurement": "viability, T/C", "setting": "[19]", "value": 19, "unit": "%"},
      {"measurement": "viability, T/C", "setting": "[20]", "value": 18.1, "unit": "%"},
      {"measurement": "viability, T/C", "setting": "[21]", "value": 18.2, "unit": "%"},
      {"measurement": "viability, T/C", "setting": "[22]", "value": 18.9, "unit": "%"},
      {"measurement": "viability, T/C", "setting": "[23]", "value": 19.9, "unit": "%"},
      {"measurement": "viability, T/C", "setting": "[24]", "value": 17.4, "unit": "%"},
      {"measurement": "viability, T/C", "setting": "[25]", "value": 6.63, "unit": "%"},
      {"measurement": "viability, T/C", "setting": "[26]", "value": 6.64, "unit": "%"},
      {"measurement": "viability, T/C", "setting": "[27]", "value": 7.07, "unit": "%"},
      {"measurement": "viability, T/C", "setting": "[28]", "value": 7.8, "unit": "%"},
      {"measurement": "viability, T/C", "setting": "[29]", "value": 6.66, "unit": "%"},
      {"measurement": "viability, T/C", "setting": "[30]", "value": 5.37, "unit": "%"},
      {"measurement": "viability, T/C", "setting": "[31]", "value": 1.68, "unit": "%"},
      {"measurement": "viability, T/C", "setting": "[32]", "value": 1.6, "unit": "%"},
      {"measurement": "viability, T/C", "setting": "[33]", "value": 1.91, "unit": "%"},
      {"measurement": "viability, T/C", "setting": "[34]", "value": 1.67, "unit": "%"},
      {"measurement": "viability, T/C", "setting": "[35]", "value": 1.93, "unit": "%"},
      {"measurement": "viability, T/C", "setting": "[36]", "value": 1.28, "unit": "%"}
    ]}
  ]
}
